From PMC10976393 (2024)

Assays:
[1] = test system: Triplet G (DNA, aptamer) CCTGGGGGGGAGTATTGCGGGAGGGAAGG; assay: ThT fluorescence light-up; conditions: 100 mM KCl; 50 mM Tris pH 7.5; 3- to 4-fold increase over non-G4 controls
[2] = test system: Triplet G (DNA, aptamer) CCTGGGGGGGAGTATTGCGGGAGGGAAGG; assay: HPLC-ESI-MS; conditions: 1 mM KCl, 100 mM TEAAc (annealed in 50 mM KCl)
[3] = test system: Quadruplet G (DNA, aptamer) CCTGGGGGGGGGAGTATTGCGGGGAGGGGAAGG; assay: HPLC-ESI-MS; conditions: 1 mM KCl, 100 mM TEAAc (annealed in 50 mM KCl)
[4] = test system: ATP Aptamer (DNA, aptamer) CCTGGGGGAGTATTGCGGAGGAAGG; assay: ThT fluorescence light-up; conditions: 100 mM KCl; 50 mM Tris pH 7.5; 3- to 4-fold increase over non-G4 controls
[5] = test system: ATP Aptamer (DNA, aptamer) CCTGGGGGAGTATTGCGGAGGAAGG; assay: HPLC-ESI-MS; conditions: 1 mM KCl, 100 mM TEAAc (annealed in 50 mM KCl)
[6] = test system: Quadruplet G (DNA, aptamer) CCTGGGGGGGGGAGTATTGCGGGGAGGGGAAGG; assay: ThT fluorescence light-up; conditions: 100 mM KCl; 50 mM Tris pH 7.5; 3- to 4-fold increase over non-G4 controls
[7] = test system: FAM-Quadruplet G (DNA, aptamer) TTCCTGGGGGGGGGAGTATTGCGGGGAGGGGAAGG; assay: FAM fluorescence increase, single-site fit; conditions: 100 mM KCl; 50 mM Tris pH 7.5; slow annealing with ATP 0-10 μM; 0.50 μM aptamer
[8] = test system: Scrambled Aptamer (DNA, single strand) GTGCGCGAGTGTGAGCGAGAGTGAG; assay: label-free ThT fluorescence; conditions: 100 mM KCl; 50 mM Tris pH 7.5; ThT present; slow annealing with ATP
[9] = test system: ATP Aptamer (DNA, aptamer) CCTGGGGGAGTATTGCGGAGGAAGG; assay: label-free ThT fluorescence increase, single-site fit; conditions: 100 mM KCl; 50 mM Tris pH 7.5; ThT 0.5 μM present; slow annealing with ATP; apparent
[10] = test system: ATP Aptamer-FAM (DNA, aptamer) TTCCTGGGGGAGTATTGCGGAGGAAGG; assay: FAM fluorescence increase, single-site fit; conditions: 100 mM KCl; 50 mM Tris pH 7.5; slow annealing with ATP 0-10 μM; 0.50 μM aptamer
[11] = test system: Quadruplet G (DNA, aptamer) CCTGGGGGGGGGAGTATTGCGGGGAGGGGAAGG; assay: label-free ThT fluorescence increase, single-site fit; conditions: 100 mM KCl; 50 mM Tris pH 7.5; ThT 0.5 μM present; slow annealing with ATP; apparent
[12] = test system: Triplet G (DNA, aptamer) CCTGGGGGGGAGTATTGCGGGAGGGAAGG; assay: as above; conditions: 100 mM KCl; 50 mM Tris pH 7.5; ThT 0.5 μM present; slow annealing with ATP; apparent
[13] = test system: GAT (DNA, single strand) GATAGCGTCACTCGATCT; assay: label-free ThT fluorescence; conditions: 100 mM KCl; 50 mM Tris pH 7.5; ThT present; slow annealing with ATP
[14] = test system: FAM-ATP Aptamer (DNA, aptamer) TTCCTGGGGGAGTATTGCGGAGGAAGG; assay: FAM fluorescence increase, single-site fit; conditions: 100 mM KCl; 50 mM Tris pH 7.5; slow annealing with ATP 0-10 μM; 0.50 μM aptamer
[15] = test system: FAM-Triplet G (DNA, aptamer) TTCCTGGGGGGGAGTATTGCGGGAGGGAAGG; assay: FAM fluorescence increase, single-site fit; conditions: 100 mM KCl; 50 mM Tris pH 7.5; slow annealing with ATP 0-10 μM; 0.50 μM aptamer
[16] = G4:ATP:ThT 1:5:5 mixed, ternary complex with ATP
[17] = 1 mM Tris, G4:ATP 1:5 mixed, also with ThT

binding [1] | binding [2, 16] | binding [3, 16] | binding [4] | binding [5, 16] | binding [6] | Kd [7] [µM] | binding [8] | Kd [9] [µM] | Kd [10] [µM] | binding [2, 17] | binding [3, 17] | Kd [11] [µM] | binding [5, 17] | Kd [12] [µM] | binding [13] | Kd [14] [µM] | Kd [15] [µM] | SMILES
yes | yes | yes | yes | yes | yes |  |  |  |  |  |  |  |  |  |  |  |  | Cc1ccc2c(c1)sc(-c1ccc(N(C)C)cc1)[n+]2C
 |  |  |  |  |  | 0.042 | no | 0.83 | 0.62 | yes | yes | 0.17 | yes | 0.071 | no | 0.15 | 0.040 | Nc1ncnc2c1ncn2[C@@H]1O[C@H](COP(=O)(O)OP(=O)(O)OP(=O)(O)O)[C@@H](O)[C@H]1O
